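Tested at 5 concentrations; 48 h exposure; 96-well plates; endpoints linearly interpolated, else capped at highest concentration. TGI: total growth inhibition.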
What was measured:
Assay in all cases: NCI-60 cell line screen, 48 h
RPMI-8226 leukemia = system: RPMI-8226 leukemia
HT29 colon = system: HT29 colon
HCC-2998 colon = system: HCC-2998 colon
NCI-H23 lung = system: NCI-H23 lung
CAKI-1 renal = system: CAKI-1 renal
OVCAR-3 ovarian = system: OVCAR-3 ovarian
MDA-N = system: MDA-N
SK-MEL-5 melanoma = system: SK-MEL-5 melanoma
NCI-H522 lung = system: NCI-H522 lung
COLO 205 colon = system: COLO 205 colon
HOP-62 NSCLC = system: HOP-62 NSCLC
SK-MEL-2 melanoma = system: SK-MEL-2 melanoma
SK-MEL-28 melanoma = system: SK-MEL-28 melanoma
BT-549 breast = system: BT-549 breast
SK-OV-3 ovarian = system: SK-OV-3 ovarian
UO-31 renal = system: UO-31 renal
MOLT-4 leukemia = system: MOLT-4 leukemia
HOP-92 NSCLC = system: HOP-92 NSCLC
MDA-MB-435 = system: MDA-MB-435
PC-3 prostate = system: PC-3 prostate
HCT-15 colon = system: HCT-15 colon
UACC-62 melanoma = system: UACC-62 melanoma
CCRF-CEM leukemia = system: CCRF-CEM leukemia
K-562 leukemia = system: K-562 leukemia
IGROV1 ovarian = system: IGROV1 ovarian
UACC-257 melanoma = system: UACC-257 melanoma
SNB-75 CNS = system: SNB-75 CNS
SNB-19 CNS = system: SNB-19 CNS
A549 NSCLC = system: A549 NSCLC
NCI-H460 lung = system: NCI-H460 lung
HCT-116 colon = system: HCT-116 colon
U251 CNS = system: U251 CNS
A498 renal = system: A498 renal
SW-620 colon = system: SW-620 colon
OVCAR-5 ovarian = system: OVCAR-5 ovarian
OVCAR-4 ovarian = system: OVCAR-4 ovarian
KM12 colon = system: KM12 colon
SF-295 CNS = system: SF-295 CNS
SN12C renal = system: SN12C renal
MDA-MB-231 breast = system: MDA-MB-231 breast
ACHN renal = system: ACHN renal
HS 578T breast = system: HS 578T breast
DU-145 prostate = system: DU-145 prostate
RXF 393 renal = system: RXF 393 renal
EKVX NSCLC = system: EKVX NSCLC
NCI-H226 lung = system: NCI-H226 lung
OVCAR-8 ovarian = system: OVCAR-8 ovarian
SF-539 CNS = system: SF-539 CNS
TK-10 renal = system: TK-10 renal
M14 melanoma = system: M14 melanoma
SR leukemia = system: SR leukemia
MALME-3M melanoma = system: MALME-3M melanoma
NCI/ADR-RES ovarian = system: NCI/ADR-RES ovarian
LOX IMVI melanoma = system: LOX IMVI melanoma
SF-268 CNS = system: SF-268 CNS
MCF7 breast = system: MCF7 breast
HL-60(TB) leukemia = system: HL-60(TB) leukemia
786-0 renal = system: 786-0 renal

CC(=O)OC1COC(n2c3ccccc3c3ccc4c5ccccc5[nH]c4c32)C(OC(C)=O)C1OC(C)=O (configuration not stated)
TGI (RPMI-8226 leukemia): > 100 µM | TGI (HT29 colon): 62.8 µM | TGI (HCC-2998 colon): > 100 µM | TGI (NCI-H23 lung): > 100 µM | TGI (CAKI-1 renal): 65.9 µM | TGI (OVCAR-3 ovarian): > 100 µM | TGI (MDA-N): > 100 µM | TGI (SK-MEL-5 melanoma): > 100 µM | TGI (NCI-H522 lung): 44.6 µM | TGI (COLO 205 colon): > 100 µM | TGI (HOP-62 NSCLC): 53.3 µM | TGI (SK-MEL-2 melanoma): > 100 µM | TGI (SK-MEL-28 melanoma): > 100 µM | TGI (BT-549 breast): > 100 µM | TGI (SK-OV-3 ovarian): 52.1 µM | TGI (UO-31 renal): > 100 µM | TGI (MOLT-4 leukemia): > 100 µM | TGI (HOP-92 NSCLC): 87.3 µM | TGI (MDA-MB-435): > 100 µM | TGI (PC-3 prostate): 96.5 µM | TGI (HCT-15 colon): > 100 µM | TGI (UACC-62 melanoma): > 100 µM | TGI (CCRF-CEM leukemia): > 100 µM | TGI (K-562 leukemia): 82.4 µM | TGI (IGROV1 ovarian): 30.8 µM | TGI (UACC-257 melanoma): > 100 µM | TGI (SNB-75 CNS): 33.2 µM | TGI (SNB-19 CNS): > 100 µM | TGI (A549 NSCLC): > 100 µM | TGI (NCI-H460 lung): 57.6 µM | TGI (HCT-116 colon): > 100 µM | TGI (U251 CNS): 74.2 µM | TGI (A498 renal): 77.7 µM | TGI (SW-620 colon): > 100 µM | TGI (OVCAR-5 ovarian): > 100 µM | TGI (OVCAR-4 ovarian): > 100 µM | TGI (KM12 colon): 37.9 µM | TGI (SF-295 CNS): 33.3 µM

O=C1OC(c2ccc(O)c(F)c2)(c2ccc(O)c(F)c2)c2cccc3cccc1c23
TGI (RPMI-8226 leukemia): > 25 µM | TGI (HT29 colon): > 25 µM | TGI (SN12C renal): > 25 µM | TGI (MDA-MB-231 breast): > 25 µM | TGI (NCI-H23 lung): > 25 µM | TGI (CAKI-1 renal): 10.1 µM | TGI (OVCAR-3 ovarian): > 25 µM | TGI (MDA-N): > 25 µM | TGI (SK-MEL-5 melanoma): > 25 µM | TGI (ACHN renal): > 25 µM | TGI (COLO 205 colon): > 25 µM | TGI (HOP-62 NSCLC): > 25 µM | TGI (SK-MEL-2 melanoma): > 25 µM | TGI (SK-MEL-28 melanoma): > 25 µM | TGI (SK-OV-3 ovarian): > 25 µM | TGI (UO-31 renal): > 25 µM | TGI (HS 578T breast): > 25 µM | TGI (DU-145 prostate): > 25 µM | TGI (MOLT-4 leukemia): > 25 µM | TGI (HOP-92 NSCLC): > 25 µM | TGI (MDA-MB-435): > 25 µM | TGI (PC-3 prostate): > 25 µM | TGI (HCT-15 colon): > 25 µM | TGI (RXF 393 renal): > 25 µM | TGI (EKVX NSCLC): 19.4 µM | TGI (NCI-H226 lung): > 25 µM | TGI (OVCAR-8 ovarian): > 25 µM | TGI (UACC-62 melanoma): > 25 µM | TGI (CCRF-CEM leukemia): > 25 µM | TGI (SF-539 CNS): > 25 µM | TGI (K-562 leukemia): > 25 µM | TGI (IGROV1 ovarian): > 25 µM | TGI (UACC-257 melanoma): > 25 µM | TGI (TK-10 renal): > 25 µM | TGI (M14 melanoma): > 25 µM | TGI (SNB-19 CNS): > 25 µM | TGI (A549 NSCLC): > 25 µM | TGI (NCI-H460 lung): > 25 µM | TGI (SR leukemia): > 25 µM | TGI (MALME-3M melanoma): > 25 µM | TGI (HCT-116 colon): > 25 µM | TGI (NCI/ADR-RES ovarian): > 25 µM | TGI (LOX IMVI melanoma): > 25 µM | TGI (U251 CNS): > 25 µM | TGI (A498 renal): > 25 µM | TGI (SW-620 colon): > 25 µM | TGI (OVCAR-5 ovarian): > 25 µM | TGI (SF-268 CNS): > 25 µM | TGI (OVCAR-4 ovarian): 0.193 µM | TGI (KM12 colon): > 25 µM | TGI (SF-295 CNS): > 25 µM | TGI (MCF7 breast): > 25 µM | TGI (HL-60(TB) leukemia): 18.9 µM

O=S(CCc1ccccc1)Nc1ccccc1 (configuration not stated)
TGI (RPMI-8226 leukemia): > 100 µM | TGI (HT29 colon): > 100 µM | TGI (SN12C renal): > 100 µM | TGI (HCC-2998 colon): > 100 µM | TGI (MDA-MB-231 breast): > 100 µM | TGI (NCI-H23 lung): > 100 µM | TGI (CAKI-1 renal): > 100 µM | TGI (OVCAR-3 ovarian): > 100 µM | TGI (MDA-N): > 100 µM | TGI (SK-MEL-5 melanoma): > 100 µM | TGI (ACHN renal): > 100 µM | TGI (NCI-H522 lung): > 100 µM | TGI (COLO 205 colon): > 100 µM | TGI (HOP-62 NSCLC): > 100 µM | TGI (SK-MEL-28 melanoma): > 100 µM | TGI (UO-31 renal): > 100 µM | TGI (HS 578T breast): > 100 µM | TGI (DU-145 prostate): > 100 µM | TGI (MOLT-4 leukemia): > 100 µM | TGI (MDA-MB-435): > 100 µM | TGI (PC-3 prostate): > 100 µM | TGI (HCT-15 colon): > 100 µM | TGI (RXF 393 renal): > 100 µM | TGI (EKVX NSCLC): > 100 µM | TGI (NCI-H226 lung): > 100 µM | TGI (OVCAR-8 ovarian): > 100 µM | TGI (CCRF-CEM leukemia): > 100 µM | TGI (SF-539 CNS): > 100 µM | TGI (K-562 leukemia): > 100 µM | TGI (IGROV1 ovarian): > 100 µM | TGI (UACC-257 melanoma): > 100 µM | TGI (TK-10 renal): > 100 µM | TGI (M14 melanoma): > 100 µM | TGI (SNB-75 CNS): > 100 µM | TGI (SNB-19 CNS): > 100 µM | TGI (786-0 renal): > 100 µM | TGI (A549 NSCLC): > 100 µM | TGI (NCI-H460 lung): > 100 µM | TGI (SR leukemia): > 100 µM | TGI (MALME-3M melanoma): > 100 µM | TGI (HCT-116 colon): > 100 µM | TGI (NCI/ADR-RES ovarian): > 100 µM | TGI (LOX IMVI melanoma): > 100 µM | TGI (U251 CNS): > 100 µM | TGI (SW-620 colon): > 100 µM | TGI (OVCAR-5 ovarian): > 100 µM | TGI (SF-268 CNS): > 100 µM | TGI (KM12 colon): > 100 µM | TGI (SF-295 CNS): > 100 µM | TGI (MCF7 breast): > 100 µM | TGI (HL-60(TB) leukemia): > 100 µM

Reference: PubChem BioAssay (NCI)
